The target in one test is IRAK4 enzyme (Homo sapiens (Human), UniProt Q9NWZ3). The test can be described thus: biochemical. The test is classed as biochemical. The settings on record: IRAK4 enzyme, TR-FRET (HTRF), 500 μM ATP. On the technique in general: TR-FRET usually uses a lanthanide donor and a delayed reading to cut background.
For a further test, the system named is TNFα. Put plainly: cells. The settings on record: Homo sapiens, Monocyte, LPS-stimulated human monocytes, TNFα content; read-out: EC50 TNF. The format is cell-based, human.

Chain of IRAK4 enzyme (Q9NWZ3 whole entry): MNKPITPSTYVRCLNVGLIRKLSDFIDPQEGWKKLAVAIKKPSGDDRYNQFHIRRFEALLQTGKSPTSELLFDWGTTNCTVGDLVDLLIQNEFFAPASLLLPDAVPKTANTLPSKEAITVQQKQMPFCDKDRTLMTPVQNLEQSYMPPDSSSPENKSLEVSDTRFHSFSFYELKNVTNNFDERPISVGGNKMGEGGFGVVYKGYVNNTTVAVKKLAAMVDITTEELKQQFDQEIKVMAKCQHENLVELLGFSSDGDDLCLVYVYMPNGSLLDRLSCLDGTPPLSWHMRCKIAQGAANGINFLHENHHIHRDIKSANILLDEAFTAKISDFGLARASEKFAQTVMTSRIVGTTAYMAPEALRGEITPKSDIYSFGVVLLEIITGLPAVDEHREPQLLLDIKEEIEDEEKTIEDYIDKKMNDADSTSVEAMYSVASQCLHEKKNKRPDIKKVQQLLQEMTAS

A word on the IC50: it is the point on the concentration scale where inhibition reaches its midpoint. Read a low IC50 as greater potency. As usually defined, the EC50 is the concentration giving half of the maximal effect. On to `CC(C)(O)[C@H](F)CNC(=O)c1cnc(-c2ccc3cc(C#N)cnn23)cc1Nc1ccc(Cl)cn1` [Example 586, (R)-4-((5-chloropyridin-2-yl)amino)-6-(3-cyano-pyrrolo[1,2-b]pyridazin-7-yl)-N-(2-fluoro-3-hydroxy-3-methylbutyl) nicotinamide], for which half-maximal inhibition against IRAK4 enzyme (IC50) required 1 nM. Further, the EC50 in the test on TNFα is 118 nM.

For the compound `CC(C)(O)[C@H](F)CNC(=O)c1cnc(-c2ccc3cc(C#N)cnn23)cc1Nc1ncccn1` [Example 587, (R)-6-(3-cyanopyrrolo[1,2-b]pyridazin-7-yl)-N-(2-fluoro-3-hydroxy-3-methyl-butyl)-4-(pyrimidin-2-ylamino)nicotinamide], half-maximal inhibition at IRAK4 enzyme (IC50) required 3 nM. Moreover, the EC50 with TNFα turned out to be 150 nM.

`CC(C)(O)[C@H](F)CNC(=O)c1cnc(-c2ccc3cc(C#N)cnn23)cc1Nc1cccnn1` [Example 588, (R)-6-(3-cyanopyrrolo[1,2-b]pyridazin-7-yl)-N-(2-fluoro-3-hydroxy-3-methylbutyl)-4-(pyridazin-3-ylamino)nicotinamide]: inhibition on IRAK4 enzyme was half-maximal at 3 nM (IC50). Further, the EC50 in the test with TNFα is 412 nM.

`CC(C)(O)[C@H](F)CNC(=O)c1cnc(-c2ccc3cc(C#N)cnn23)cc1Nc1ccccc1` [Example 589, (R)-6-(3-cyanopyrrolo[1,2-b]pyridazin-7-yl)-N-(2-fluoro-3-hydroxy-3-methylbutyl)-4-(phenylamino)nicotinamide] returned a concentration for half-maximal inhibition (IC50) against IRAK4 enzyme of under 1 nM. Further, the EC50 in the test with TNFα was 95 nM.

In turn, `COc1ncc(Nc2cc(-c3ccc4cc(C#N)cnn34)ncc2C(=O)NC[C@@H](F)C(C)(C)O)cn1` [Example 590, (R)-6-(3-cyanopyrrolo[1,2-b]pyridazin-7-yl)-N-(2-fluoro-3-hydroxy-3-methylbutyl)-4-((2-methoxypyrimidin-5-yl)amino)nicotinamide] returned an IC50 on IRAK4 enzyme of under 1 nM. The EC50 with TNFα is 38 nM.

`CC(C)(O)[C@H](F)CNC(=O)c1cnc(-c2ccc3cc(C#N)cnn23)cc1Nc1ccnc(F)c1` [Example 591, (R)-6-(3-cyanopyrrolo[1,2-b]pyridazin-7-yl)-N-(2-fluoro-3-hydroxy-3-methylbutyl)-4-((2-fluoro-pyridin-4-yl)amino) nicotinamide] registered an IC50 against IRAK4 enzyme of 2 nM. For the same compound, in the test on TNFα, the EC50 was determined as 180 nM.

For `CC(C)(O)[C@H](F)CNC(=O)c1cnc(-c2ccc3cc(C#N)cnn23)cc1Nc1cncc(C(N)=O)c1` [Example 592, (R)-4-((5-carbamoyl-pyridin-3-yl)amino)-6-(3-cyanopyrrolo[1,2-b]pyridazin-7-yl)-N-(2-fluoro-3-hydroxy-3-methylbutyl) nicotinamide], the 50% inhibitory concentration (IC50) against IRAK4 enzyme came to 1 nM. Besides, the EC50 with TNFα stood at 222 nM.

On IRAK4 enzyme, `CC(C)(O)[C@H](F)CNC(=O)c1cnc(-c2ccc3cc(C#N)cnn23)cc1Nc1ccncc1` [Example 593, (R)-6-(3-cyano-pyrrolo[1,2-b]pyridazin-7-yl)-N-(2-fluoro-3-hydroxy-3-methylbutyl)-4-(pyridin-4-ylamino) nicotinamide] showed a concentration for half-maximal inhibition (IC50) of 2 nM. In addition, the EC50 with TNFα was determined as 143 nM.

Compound `COC(=O)c1cncc(Nc2cc(-c3ccc4cc(C#N)cnn34)ncc2C(=O)NC[C@@H](F)C(C)(C)O)c1` [Example 594, (R)-methyl 5-((2-(3-cyanopyrrolo[1,2-b]pyridazin-7-yl)-5-((2-fluoro-3-hydroxy-3-methylbutyl)carbamoyl)pyridin-4-yl)amino) nicotinate] returned an IC50 against IRAK4 enzyme of 2 nM. Moreover, the EC50 with TNFα came out at 316 nM.

For the compound `Cc1ncc(Nc2cc(-c3ccc4cc(C#N)cnn34)ncc2C(=O)NC[C@@H](F)C(C)(C)O)cn1` [Example 595, (R)-6-(3-cyano-pyrrolo[1,2-b]pyridazin-7-yl)-N-(2-fluoro-3-hydroxy-3-methylbutyl)-4-((2-methylpyrimidin-5-yl)amino)nicotinamide], on IRAK4 enzyme, the IC50 was under 1 nM. The EC50 in the test on TNFα was found to be 107 nM.

On IRAK4 enzyme, `CC(C)(O)[C@H](F)CNC(=O)c1cnc(-c2ccc3cc(C#N)cnn23)cc1Nc1cnc(C#N)nc1` [Example 596, (R)-4-((2-cyano-pyrimidin-5-yl)amino)-6-(3-cyanopyrrolo[1,2-b]pyridazin-7-yl)-N-(2-fluoro-3-hydroxy-3-methylbutyl) nicotinamide] came in with a half-inhibitory concentration (IC50) of 3 nM. Besides, in the test on TNFα, the EC50 was over 10000 nM.

On to `CC(C)(O)[C@H](F)CNC(=O)c1cnc(-c2ccc3cc(C#N)cnn23)cc1Nc1ccc(OC(F)F)nc1` [Example 597, (R)-6-(3-cyano-pyrrolo[1,2-b]pyridazin-7-yl)-4-((6-(difluoro-methoxy)pyridin-3-yl)amino)-N-(2-fluoro-3-hydroxy-3-methylbutyl) nicotinamide], for which half-maximal inhibition against IRAK4 enzyme (IC50) was put at 1 nM. For the same compound, the EC50 in the test on TNFα was 106 nM.

In turn, `COc1cc(Nc2cc(-c3ccc4cc(C#N)cnn34)ncc2C(=O)NC[C@@H](F)C(C)(C)O)ccn1` [Example 598, (R)-6-(3-cyano-pyrrolo[1,2-b]pyridazin-7-yl)-N-(2-fluoro-3-hydroxy-3-methyl-butyl)-4-((2-methoxy-pyridin-4-yl)amino) nicotinamide] registered a 50% inhibitory concentration (IC50) at IRAK4 enzyme of under 1 nM. In addition, in the test with TNFα, the EC50 turned out to be 106 nM.

On IRAK4 enzyme, `CC(C)(O)[C@H](F)CNC(=O)c1cnc(-c2ccc3cc(C#N)cnn23)cc1Nc1ccc(F)nc1` [Example 599, (R)-6-(3-cyano-pyrrolo[1,2-b]pyridazin-7-yl)-N-(2-fluoro-3-hydroxy-3-methylbutyl)-4-((6-fluoro-pyridin-3-yl)amino) nicotinamide] came in with an IC50 of under 1 nM. The EC50 in the test with TNFα is 68 nM.

For the compound `CC(C)(O)[C@H](F)CNC(=O)c1cnc(-c2ccc3cc(C#N)cnn23)cc1Nc1cncc(F)c1` [Example 600, (R)-6-(3-cyano-pyrrolo[1,2-b]pyridazin-7-yl)-N-(2-fluoro-3-hydroxy-3-methylbutyl)-4-((5-fluoropyridin-3-yl)amino)nicotinamide], at IRAK4 enzyme, the IC50 was under 1 nM. In the test on TNFα, the EC50 was 72 nM.

Consider `CC(C)(O)[C@H](F)CNC(=O)c1cnc(-c2ccc3cc(C#N)cnn23)cc1Nc1ccc(C(N)=O)nc1` [Example 601, (R)-5-((2-(3-cyano-pyrrolo[1,2-b]pyridazin-7-yl)-5-((2-fluoro-3-hydroxy-3-methylbutyl)carbamoyl)pyridin-4-yl)amino) picolinamide], for which the IC50 on IRAK4 enzyme is under 1 nM. In addition, in the test on TNFα, the EC50 turned out to be 64 nM.

On to `COc1ccc(Nc2cc(-c3ccc4cc(C#N)cnn34)ncc2C(=O)NC[C@@H](F)C(C)(C)O)cn1` [Example 602, (R)-6-(3-cyanopyrrolo[1,2-b]pyridazin-7-yl)-N-(2-fluoro-3-hydroxy-3-methylbutyl)-4-((6-methoxy-pyridin-3-yl)amino) nicotinamide], for which the IC50 on IRAK4 enzyme was under 1 nM. Moreover, in the test with TNFα, the EC50 turned out to be 70 nM.

With `CC(C)(O)[C@H](F)CNC(=O)c1cnc(-c2ccc3cc(C#N)cnn23)cc1Nc1ccc(C#N)nc1` [Example 603, (R)-4-((6-cyanopyridin-3-yl)amino)-6-(3-cyano-pyrrolo[1,2-b]pyridazin-7-yl)-N-(2-fluoro-3-hydroxy-3-methylbutyl)nicotinamide], inhibition at IRAK4 enzyme was half-maximal at 1 nM (IC50). In addition, the EC50 with TNFα worked out at 81 nM.

`COc1cc(Nc2cc(-c3ccc4cc(C#N)cnn34)ncc2C(=O)NC[C@@H](F)C(C)(C)O)ccc1C(N)=O` [Example 604, (R)-4-((4-carbamoyl-3-methoxyphenyl)amino)-6-(3-cyanopyrrolo[1,2-b]pyridazin-7-yl)-N-(2-fluoro-3-hydroxy-3-methylbutyl)nicotinamide] gave an IC50 on IRAK4 enzyme of 7 nM. In the test with TNFα, the EC50 amounted to 283 nM.
